Experimental data taken from US20250236611A1, “PYRAZOLE COMPOUNDS AND USES THEREOF” (ALCON INC., priority 2021, published 2025).
Values belong to the compound of their own block, whether it stands above or below them.

Columns and labels:
Assay type in all cases: biochemical
Conditions in all cases: 10 nM JAK enzyme, 800 nM Abl peptide, room temperature 75 min
JAK1 = JAK1 (Homo sapiens, UniProt P23458); assay: JAK assay (KINASE-GLO luminescent kinase assay), JAK1
Summary of the method: (§1)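 The 2× mix gave 10 nM kinase, 800 nM Abl peptide and 2 µM DTT, and ATP was added as a 4× stock (2 µM), in HEPES pH 7.5 buffer. Compounds ran as an 11-point series, 100 µM–10 pM final in 2.5% DMSO, for 75 min at RT. Remaining ATP was read by luminescence against DMSO control, and 4-parameter IC50s were converted to Ki by Cheng-Prusoff.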

JAK2 = JAK2 (Homo sapiens, UniProt O60674); assay: JAK assay (KINASE-GLO luminescent kinase assay), JAK2
JAK2, sequence (O60674 whole entry): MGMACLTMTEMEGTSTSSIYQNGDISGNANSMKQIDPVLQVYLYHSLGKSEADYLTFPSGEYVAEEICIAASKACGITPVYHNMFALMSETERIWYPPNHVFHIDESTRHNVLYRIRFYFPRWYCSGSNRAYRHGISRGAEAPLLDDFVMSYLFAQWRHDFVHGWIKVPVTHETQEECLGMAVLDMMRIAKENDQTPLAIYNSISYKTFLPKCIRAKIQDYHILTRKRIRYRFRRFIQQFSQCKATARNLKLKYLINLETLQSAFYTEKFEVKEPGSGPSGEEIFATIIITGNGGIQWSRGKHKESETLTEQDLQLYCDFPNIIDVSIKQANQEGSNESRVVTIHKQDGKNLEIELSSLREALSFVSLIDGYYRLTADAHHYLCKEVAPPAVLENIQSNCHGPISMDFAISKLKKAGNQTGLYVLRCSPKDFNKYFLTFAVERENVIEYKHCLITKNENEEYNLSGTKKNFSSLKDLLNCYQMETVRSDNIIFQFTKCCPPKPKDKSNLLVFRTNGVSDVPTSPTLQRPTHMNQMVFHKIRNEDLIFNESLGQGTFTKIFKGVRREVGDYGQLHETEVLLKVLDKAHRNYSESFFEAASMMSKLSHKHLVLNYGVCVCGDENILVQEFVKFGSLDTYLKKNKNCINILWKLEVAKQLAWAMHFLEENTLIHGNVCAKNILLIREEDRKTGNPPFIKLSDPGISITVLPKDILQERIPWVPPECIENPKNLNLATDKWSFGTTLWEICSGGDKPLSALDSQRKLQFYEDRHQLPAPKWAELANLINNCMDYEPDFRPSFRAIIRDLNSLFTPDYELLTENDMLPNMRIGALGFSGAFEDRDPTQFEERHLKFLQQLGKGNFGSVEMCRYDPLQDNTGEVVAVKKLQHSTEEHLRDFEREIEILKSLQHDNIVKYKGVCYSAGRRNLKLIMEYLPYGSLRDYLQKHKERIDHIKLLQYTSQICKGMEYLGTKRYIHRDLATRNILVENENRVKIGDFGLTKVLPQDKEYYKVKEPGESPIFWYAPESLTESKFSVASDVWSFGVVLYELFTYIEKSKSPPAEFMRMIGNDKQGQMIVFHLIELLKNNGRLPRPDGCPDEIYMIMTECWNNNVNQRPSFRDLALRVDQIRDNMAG
Summary of the method: as §1

JAK3 = target: T1, JAK3 (Homo sapiens, UniProt P52333); assay: JAK assay (KINASE-GLO luminescent kinase assay), JAK3
T1 sequence (P52333 1-1124): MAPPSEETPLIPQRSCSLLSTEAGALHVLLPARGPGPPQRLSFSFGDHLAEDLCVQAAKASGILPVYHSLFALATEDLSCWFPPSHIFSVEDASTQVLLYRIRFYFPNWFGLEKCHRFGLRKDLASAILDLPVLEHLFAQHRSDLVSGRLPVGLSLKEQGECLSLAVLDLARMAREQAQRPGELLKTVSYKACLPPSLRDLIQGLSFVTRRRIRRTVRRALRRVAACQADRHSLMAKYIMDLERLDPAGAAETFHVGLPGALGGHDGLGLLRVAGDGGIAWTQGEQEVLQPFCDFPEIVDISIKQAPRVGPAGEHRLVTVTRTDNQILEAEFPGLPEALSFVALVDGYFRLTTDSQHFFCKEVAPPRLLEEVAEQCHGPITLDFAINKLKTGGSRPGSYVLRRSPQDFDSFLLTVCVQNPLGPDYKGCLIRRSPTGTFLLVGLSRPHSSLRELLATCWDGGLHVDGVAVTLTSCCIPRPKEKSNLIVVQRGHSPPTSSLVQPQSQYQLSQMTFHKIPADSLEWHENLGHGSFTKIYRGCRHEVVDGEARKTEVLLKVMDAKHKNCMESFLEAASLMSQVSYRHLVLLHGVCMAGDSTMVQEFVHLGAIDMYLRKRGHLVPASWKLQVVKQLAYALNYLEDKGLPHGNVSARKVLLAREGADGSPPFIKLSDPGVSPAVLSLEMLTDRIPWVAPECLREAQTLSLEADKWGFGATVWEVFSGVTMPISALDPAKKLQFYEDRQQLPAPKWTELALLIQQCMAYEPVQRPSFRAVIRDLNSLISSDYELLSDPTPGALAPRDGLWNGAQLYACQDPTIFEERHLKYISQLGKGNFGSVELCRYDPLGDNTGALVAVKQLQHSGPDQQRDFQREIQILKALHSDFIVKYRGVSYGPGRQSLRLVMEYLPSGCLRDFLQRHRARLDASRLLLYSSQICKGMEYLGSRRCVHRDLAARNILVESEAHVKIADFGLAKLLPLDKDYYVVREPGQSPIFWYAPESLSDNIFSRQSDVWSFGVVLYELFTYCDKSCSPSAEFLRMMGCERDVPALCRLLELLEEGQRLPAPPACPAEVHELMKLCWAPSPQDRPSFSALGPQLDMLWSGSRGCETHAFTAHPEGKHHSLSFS
Summary of the method: as §1

TYK2 = TYK2 (Homo sapiens, UniProt P29597); assay: JAK assay (KINASE-GLO luminescent kinase assay), TYK2
TYK2, sequence (P29597 whole entry): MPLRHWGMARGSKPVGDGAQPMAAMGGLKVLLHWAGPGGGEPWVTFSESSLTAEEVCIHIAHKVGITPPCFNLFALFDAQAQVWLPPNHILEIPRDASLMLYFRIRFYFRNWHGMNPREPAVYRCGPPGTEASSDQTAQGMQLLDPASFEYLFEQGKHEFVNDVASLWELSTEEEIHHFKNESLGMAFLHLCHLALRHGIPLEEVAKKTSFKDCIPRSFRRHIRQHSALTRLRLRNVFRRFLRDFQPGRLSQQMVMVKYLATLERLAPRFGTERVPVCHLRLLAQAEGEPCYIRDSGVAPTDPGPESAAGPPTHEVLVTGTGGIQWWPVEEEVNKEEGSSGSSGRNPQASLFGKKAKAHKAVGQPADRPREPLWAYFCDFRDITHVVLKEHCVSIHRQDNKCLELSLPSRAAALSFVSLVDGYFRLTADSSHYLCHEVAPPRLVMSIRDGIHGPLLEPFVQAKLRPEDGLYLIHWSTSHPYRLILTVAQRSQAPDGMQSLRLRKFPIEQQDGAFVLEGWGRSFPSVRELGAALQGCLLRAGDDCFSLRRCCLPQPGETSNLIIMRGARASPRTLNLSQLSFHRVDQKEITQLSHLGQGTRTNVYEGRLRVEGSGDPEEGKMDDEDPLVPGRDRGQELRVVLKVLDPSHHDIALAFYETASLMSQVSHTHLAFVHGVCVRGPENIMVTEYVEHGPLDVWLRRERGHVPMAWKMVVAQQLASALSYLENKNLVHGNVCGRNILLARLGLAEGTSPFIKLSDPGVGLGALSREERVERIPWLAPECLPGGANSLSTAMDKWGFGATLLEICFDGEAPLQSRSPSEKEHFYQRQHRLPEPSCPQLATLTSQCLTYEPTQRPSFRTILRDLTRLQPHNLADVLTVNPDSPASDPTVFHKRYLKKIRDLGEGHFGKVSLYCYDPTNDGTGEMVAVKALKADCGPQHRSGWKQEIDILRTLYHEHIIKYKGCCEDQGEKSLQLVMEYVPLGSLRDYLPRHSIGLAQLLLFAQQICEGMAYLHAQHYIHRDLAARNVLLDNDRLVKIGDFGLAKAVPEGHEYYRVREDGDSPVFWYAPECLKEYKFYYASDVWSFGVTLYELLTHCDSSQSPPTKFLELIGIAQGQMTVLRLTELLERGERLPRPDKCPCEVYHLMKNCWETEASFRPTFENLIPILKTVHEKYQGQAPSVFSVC

JAK1, sequence (P23458 whole entry): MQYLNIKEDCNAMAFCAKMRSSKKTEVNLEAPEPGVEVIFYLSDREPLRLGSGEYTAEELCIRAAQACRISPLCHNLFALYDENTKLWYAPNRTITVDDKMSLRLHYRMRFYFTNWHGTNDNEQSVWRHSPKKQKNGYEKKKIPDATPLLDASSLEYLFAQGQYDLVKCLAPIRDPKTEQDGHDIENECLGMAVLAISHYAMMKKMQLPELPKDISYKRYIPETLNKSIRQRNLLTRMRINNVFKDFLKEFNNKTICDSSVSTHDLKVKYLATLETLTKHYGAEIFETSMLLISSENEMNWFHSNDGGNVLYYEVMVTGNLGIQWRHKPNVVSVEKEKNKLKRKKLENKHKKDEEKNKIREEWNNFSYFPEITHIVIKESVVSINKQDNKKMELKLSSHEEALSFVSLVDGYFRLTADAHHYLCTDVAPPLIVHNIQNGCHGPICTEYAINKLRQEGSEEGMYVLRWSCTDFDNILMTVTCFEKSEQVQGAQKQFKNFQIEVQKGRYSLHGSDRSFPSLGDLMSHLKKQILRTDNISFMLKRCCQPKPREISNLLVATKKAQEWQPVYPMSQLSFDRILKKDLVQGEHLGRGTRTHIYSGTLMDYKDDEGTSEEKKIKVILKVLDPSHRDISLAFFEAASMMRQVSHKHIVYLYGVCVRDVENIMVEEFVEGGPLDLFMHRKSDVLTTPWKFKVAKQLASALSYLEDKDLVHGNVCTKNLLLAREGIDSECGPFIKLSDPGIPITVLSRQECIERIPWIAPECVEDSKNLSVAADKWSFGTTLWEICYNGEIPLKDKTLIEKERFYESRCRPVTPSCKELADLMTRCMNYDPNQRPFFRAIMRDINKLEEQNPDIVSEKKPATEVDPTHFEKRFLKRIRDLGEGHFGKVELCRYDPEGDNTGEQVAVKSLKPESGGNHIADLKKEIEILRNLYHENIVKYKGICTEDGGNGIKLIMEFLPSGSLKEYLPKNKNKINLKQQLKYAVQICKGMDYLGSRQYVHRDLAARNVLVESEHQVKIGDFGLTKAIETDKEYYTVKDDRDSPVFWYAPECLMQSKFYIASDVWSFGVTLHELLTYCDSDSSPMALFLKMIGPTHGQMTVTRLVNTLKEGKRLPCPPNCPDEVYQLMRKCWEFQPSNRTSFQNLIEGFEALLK

IC50 (JAK1): < 100 nM
IC50 (JAK2): < 10 nM
IC50 (JAK3): < 100 nM
IC50 (TYK2): < 10 nM
Structure (SMILES): N#CCC1(Cn2cc(-c3ccnc(Nc4cc(CO)ns4)n3)cn2)CC1 [OCC1═NSC(═C1)NC2═NC(═CC═N2)C3═C[N]]

IC50 (JAK1): < 100 nM
IC50 (JAK2): < 10 nM
IC50 (JAK3): < 100 nM
IC50 (TYK2): < 10 nM
Structure (SMILES): N#CCCn1cc(-c2nc(Nc3ccc(CCO)cc3)ncc2Cl)cn1 [OCCC1═CC═C(NC2═NC(═C]

IC50 (JAK1): < 100000 nM
IC50 (JAK2): < 100000 nM
IC50 (JAK3): > 50000 nM
IC50 (TYK2): < 100000 nM
Structure (SMILES): N#CCCn1cc(-c2ccnc(NC(=O)C3CC3)n2)cn1 [O═C(NC1═NC(═CC═N1)C2═C[N]]

Continued, compound first:

Structure (SMILES): OCC(O)c1cccc(Nc2ncc(Cl)c(-c3cnn(CC4(CF)CC4)c3)n2)c1 (centres unmarked) [OCC(O)C1═CC═CC(═C1)NC2═NC(═C]
IC50 (JAK1): < 10 nM
IC50 (JAK2): < 10 nM
IC50 (JAK3): < 10 nM
IC50 (TYK2): < 10 nM

Structure (SMILES): N#CCCn1cc(-c2nc(Nc3ccc(CCOP(=O)(O)O)cc3)ncc2Cl)cn1 [O[P](O)(═O)OCCC1═CC═C(NC2═NC(═C]
IC50 (JAK1): < 100 nM
IC50 (JAK2): < 10 nM
IC50 (JAK3): < 100 nM
IC50 (TYK2): < 10 nM
